Laboratory results: article PMC6628712 (Journal of enzyme inhibition and medicinal chemistry, 2016)
Read-outs that look alike come from different tables or passages of the source.

Key:
[1] = target: T1, CYP2C8 (Homo sapiens, UniProt P10632); details: read-out: CYP2C8 IC50, cited from earlier work
T1 sequence (P10632 1-490): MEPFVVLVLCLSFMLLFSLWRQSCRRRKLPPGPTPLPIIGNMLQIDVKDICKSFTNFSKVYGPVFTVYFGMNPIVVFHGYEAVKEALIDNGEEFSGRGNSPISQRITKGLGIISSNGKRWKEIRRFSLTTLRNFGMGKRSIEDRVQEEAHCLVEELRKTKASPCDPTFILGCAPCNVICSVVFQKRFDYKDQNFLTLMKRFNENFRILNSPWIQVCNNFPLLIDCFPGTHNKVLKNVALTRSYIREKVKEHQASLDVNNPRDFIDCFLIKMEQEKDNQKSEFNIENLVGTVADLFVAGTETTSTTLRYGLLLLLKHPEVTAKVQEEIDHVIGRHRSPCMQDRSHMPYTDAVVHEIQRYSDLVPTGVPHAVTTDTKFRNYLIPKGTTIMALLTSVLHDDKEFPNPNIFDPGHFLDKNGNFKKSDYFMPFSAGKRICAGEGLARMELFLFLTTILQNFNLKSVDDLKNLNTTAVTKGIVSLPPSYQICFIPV

[2] = total plasma, clinically relevant dose as in column Oral Dose; ref [64]–[73]; cited from earlier work
[3] = unbound fraction in plasma; ref [64]–[73]; cited from earlier work
[4] = human, in vivo
[5] = target: T2, CYP26B1 (Homo sapiens, UniProt Q9NR63); assay: Inhibition of CYP26B1-catalyzed tazarotenic acid sulfoxide formation; type: biochemical; details: recombinant CYP26B1, probe tazarotenic acid sulfoxide formation, ± standard error
T2 sequence (Q9NR63 1-512): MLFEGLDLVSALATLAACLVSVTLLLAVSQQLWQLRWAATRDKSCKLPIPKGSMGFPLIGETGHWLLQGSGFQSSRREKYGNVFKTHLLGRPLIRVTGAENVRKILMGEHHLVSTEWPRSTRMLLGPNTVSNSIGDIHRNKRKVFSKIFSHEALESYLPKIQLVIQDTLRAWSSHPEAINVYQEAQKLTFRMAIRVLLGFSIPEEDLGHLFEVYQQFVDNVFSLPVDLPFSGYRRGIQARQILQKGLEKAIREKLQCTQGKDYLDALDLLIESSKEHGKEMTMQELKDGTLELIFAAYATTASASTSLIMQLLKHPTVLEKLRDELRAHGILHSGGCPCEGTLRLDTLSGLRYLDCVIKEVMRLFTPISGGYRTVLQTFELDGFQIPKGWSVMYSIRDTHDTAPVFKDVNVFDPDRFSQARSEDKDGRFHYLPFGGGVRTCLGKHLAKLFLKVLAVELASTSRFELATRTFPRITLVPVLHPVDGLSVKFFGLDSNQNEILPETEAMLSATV

[6] = target: T3, CYP26A1 (Homo sapiens, UniProt O43174); assay: Inhibition of CYP26A1-catalyzed tazarotenic acid sulfoxide formation; type: biochemical
T3 sequence (O43174 1-497): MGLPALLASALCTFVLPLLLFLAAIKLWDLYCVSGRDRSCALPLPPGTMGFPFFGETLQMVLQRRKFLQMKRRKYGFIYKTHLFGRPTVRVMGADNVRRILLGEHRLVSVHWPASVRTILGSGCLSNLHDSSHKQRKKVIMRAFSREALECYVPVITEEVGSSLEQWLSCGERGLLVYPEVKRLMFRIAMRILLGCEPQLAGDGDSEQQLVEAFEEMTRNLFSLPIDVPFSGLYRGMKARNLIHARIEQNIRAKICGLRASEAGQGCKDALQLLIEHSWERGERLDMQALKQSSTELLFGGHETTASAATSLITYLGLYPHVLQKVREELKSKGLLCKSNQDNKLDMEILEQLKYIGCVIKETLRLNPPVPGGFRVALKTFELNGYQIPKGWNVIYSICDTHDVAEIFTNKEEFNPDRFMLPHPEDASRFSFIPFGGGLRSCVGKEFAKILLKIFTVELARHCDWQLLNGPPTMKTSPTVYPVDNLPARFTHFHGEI

[7] = tested on: CYP26A1; details: in vitro; ref [97]; cited from earlier work
[8] = patient with acute promyelocytic leukemia, co-administration of oral fluconazole; ref [102]; cited from earlier work
[9] = target: T3, CYP26A1; assay: Spectral binding determination, CYP26A1; details: UV-difference spectra
[10] = target: T2, CYP26B1; assay: Spectral binding determination, CYP26B1; details: UV-difference spectra
[11] = tested on: CYP26A1, CYP26B1 or CYP2C8; assay: In vitro stability of candesartan cilexetil; type: in vitro ADME; details: 1 μM, 5 nM CYP26A1, CYP26B1 or CYP2C8, NADPH, up to 10 minutes; data not shown
[12] = substrate amodiaquine, ref [51]
[13] = CYP26A1 IC50, tazarotenic acid, recombinant CYP26A1, probe tazarotenic acid sulfoxide formation, ± standard error
[14] = read-out: CYP26B1 IC50, tazarotenic acid
[15] = read-out: CYP26A1 IC50, tazarotenic acid, recombinant CYP26A1, probe tazarotenic acid sulfoxide formation, ± standard error
[16] = substrate montelukast (HLM), ref [44]

SMILES	Cmax,u [4] [nM]	IC50 ([5]; CYP26B1 IC50, tazarotenic acid) [nM]	IC50 [6, 13] [nM]	IC50 [1, 12] [nM]	Cmax [2] [nM]	fu,plasma [3]	IC50 [5, 14] [nM]	IC50 [6, 15] [nM]	further results
C#C[C@]1(O)CC[C@H]2[C@@H]3CCc4cc(O)ccc4[C@H]3CC[C@@]21C [17α-Ethynylestradiol]	0.00085	–	–	6540 ± 1220	0.5	0.002	6730 ± 3770	2240 ± 1330	–
O=c1c(O)c(-c2ccc(O)c(O)c2)oc2cc(O)cc(O)c12 [Quercetin]	0.45	76200 ± 148000	1920 ± 390	–	50.9	0.009	–	–	Inhibition of CYP26A1-catalyzed 4-hydroxyretinoic acid formation [7]: not be inhibitors
CC1(C)CCC(C)(C)c2cc(C3(c4ccc(C(=O)O)cc4)OCCO3)ccc21 [SR11237]	–	–	–	–	–	–	6860 ± 460	810 ± 340	–
CC1(C)CCC(C)(C)c2cc(C3(c4ccc5cc(C(=O)O)ccc5c4)SCCS3)ccc21 [MM11253]	–	–	–	–	–	–	1250 ± 440	20 ± 10	–
OC(Cn1cncn1)(Cn1cncn1)c1ccc(F)cc1F [Fluconazole]	30794	19800 ± 3210	700 ± 190	–	34600	–	–	–	IC50 ([1]; substrate amodiaquine, ref [50]): 48900 nM; Increase of AUC of orally administered retinoic acid [8]: 4 fold; Increase of Cmax of orally administered retinoic acid [8]: 6 fold; Inhibition of CYP26A1-catalyzed 4-hydroxyretinoic acid formation [7]: not be inhibitors
CC(C)c1nc(CN(C)C(=O)N[C@H](C(=O)N[C@@H](Cc2ccccc2)C[C@H](O)[C@H](Cc2ccccc2)NC(=O)OCc2cncs2)C(C)C)cs1 [Ritonavir]	150	–	–	–	15300	–	–	–	–
O=C(O)c1ccc2cc(-c3ccc(O)c(C45CC6CC(CC(C6)C4)C5)c3)ccc2c1 [CD437]	–	–	–	–	–	–	140 ± 50	10 ± 10	–
C[C@@H]1C[C@H]2[C@@H]3CCC4=CC(=O)C=C[C@]4(C)[C@@]3(Cl)[C@@H](O)C[C@]2(C)[C@@]1(O)C(=O)CCl [Mometasone]	0.0005	–	–	813 ± 112	0.05	0.010	6810 ± 1190	900 ± 80	–
CCC(CC)C(c1ccc(Nc2nc3ccccc3s2)cc1)n1cncn1 (stereo not shown) [Talarazole]	–	–	–	–	–	–	1 ± 1	20 ± 10	–
CC1(C)CCC(C)(C)c2cc(C#Cc3ccc(C(=O)O)cc3)ccc21 [EC23]	–	–	–	–	–	–	3450 ± 2800	1600 ± 740	–
Clc1cccc(C(c2ccc3[nH]cnc3c2)n2ccnc2)c1 (stereo not shown) [Liarazole]	–	–	–	–	–	–	10 ± 10	–	–
C=C(c1ccc(C(=O)O)cc1)c1cc2c(cc1C)C(C)(C)CCC2(C)C [Bexarotene]	–	1600 ± 270	–	–	–	–	–	–	IC50 [6]: 1310 ± 480 nM
CC1(C)CCC(C)(C)c2cc(NC(=O)c3ccc(C(=O)O)cc3)ccc21 [AM80]	–	–	–	–	–	–	9210 ± 830	2890 ± 240	–
CCOc1cc(CC(=O)N[C@@H](CC(C)C)c2ccccc2N2CCCCC2)ccc1C(=O)O [Repaglinide]	2.60	610 ± 250	7730 ± 2690	–	104	0.026	–	–	IC50 [1, 16]: 11100 nM
CCc1oc2ccccc2c1C(=O)c1cc(Br)c(O)c(Br)c1 [Benzbromarone]	92.4	7570 ± 4930	–	–	9240	0.010	–	–	IC50 [1, 16]: 380 nM; IC50 [6]: 630 ± 60 nM

Second part, led by results:

Cmax,u [4] [nM]	IC50 ([5]; CYP26B1 IC50, tazarotenic acid) [nM]	IC50 [6, 13] [nM]	SMILES	IC50 [1, 12] [nM]	Cmax [2] [nM]	fu,plasma [3]	IC50 [5, 14] [nM]	IC50 [6, 15] [nM]	further results
0.50	3280 ± 1150	1780 ± 770	O=C(c1ccc(OCCN2CCCCC2)cc1)c1c(-c2ccc(O)cc2)sc2cc(O)ccc12 [Raloxifene]	2150 ± 900	1.05	0.050	–	–	–
38.0	8480 ± 1190	930 ± 260	CCc1ccc(CCOc2ccc(CC3SC(=O)NC3=O)cc2)nc1 (stereo not shown) [Pioglitazone]	11700 ± 4000	4490	–	–	–	–
0.38	58300	25600 ± 25800	CCOc1nc2cccc(C(=O)O)c2n1Cc1ccc(-c2ccccc2-c2nnn[nH]2)cc1 [Candesartan]	36200 ± 1700	270	–	–	–	–
3.40	8470 ± 6640	11900 ± 1020	CN(CCOc1ccc(CC2SC(=O)NC2=O)cc1)c1ccccn1 (stereo not shown) [Rosiglitazone]	10800 ± 3100	1670	0.002	–	–	–
8.90	610 ± 90	120 ± 20	CC(C)(O)c1ccccc1CC[C@@H](SCC1(CC(=O)O)CC1)c1cccc(/C=C/c2ccc3ccc(Cl)cc3n2)c1 [Montelukast]	–	925	–	–	–	–
6.40	14000 ± 1110	21400 ± 20300	CC/C(=C(\c1ccccc1)c1ccc(OCCN(C)C)cc1)c1ccccc1 [Tamoxifen]	3340 ± 1550	323	0.020	–	–	Inhibition of CYP26A1-catalyzed 4-hydroxyretinoic acid formation [7]: not be inhibitors
3.00	710 ± 230	60 ± 20	COc1cc(C(=O)NS(=O)(=O)c2ccccc2C)ccc1Cc1cn(C)c2ccc(NC(=O)OC3CCCC3)cc12 [Zafirlukast]	644 ± 273	1120	0.010	–	–	Binding mechanism, CYP26A1 [9]: No binding spectra could be obtained; Selectivity for CYP26A1 (versus CYP26B1) ([6]; ratio of IC50 values, tazarotenic acid probe): 11.8 fold
1.80	160 ± 20	550 ± 90	CCC(C)n1ncn(-c2ccc(N3CCN(c4ccc(OCC5COC(Cn6cncn6)(c6ccc(Cl)cc6Cl)O5)cc4)CC3)cc2)c1=O (stereo not shown) [Itraconazole]	–	919	–	–	–	IC50 ([1]; substrate paclitaxel, ref Unpublished Data): 2160 ± 410 nM
–	270 ± 60	–	CCOc1nc2cccc(C(=O)OC(C)OC(=O)OC3CCCCC3)c2n1Cc1ccc(-c2ccccc2-c2nnn[nH]2)cc1 (stereo not shown) [Candesartan Cilexetil]	496 ± 190	–	–	–	–	Binding mechanism, CYP26B1 [10]: No binding spectra could be obtained; Degradation of candesartan cilexetil [11]: Minimal degradation; IC50 [6]: 410 ± 320 nM
